The record followed here is patent publication US20210403435A1, “HERBICIDAL COMPOUNDS” (SYNGENTA CROP PROTECTION AG, priority 2018, published 2021).

Molecules are shown by their SMILES.

What all share (experiment): Post-emergence efficacy, glasshouse, evaluated after 13 days
Type in all cases: in vivo

Assay [1] relates to Chenopodium album (CHEAL). The settings on record: post-emergence application, 500 g/Ha, evaluated after 13 days; for pest or weed control at 500 g/ha: Chenopodium album, 312 h, read-out: Control of weed species CHEAL (100=total damage to plant; 0=no damage to plant). In a few lines:
(§1)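 Sprayed at 14 days after sowing with an emulsifiable IF50-based formulation in aqueous surfactant/ammonium sulphate diluent, the plants were kept in a 24/16 °C glasshouse with 14 h light. Visual herbicidal damage was recorded after 13 days on a 0–100 scale.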

The next assay concerns Lolium perenne (LOLPE). The settings on record: post-emergence application, 500 g/Ha, evaluated after 13 days; for pest or weed control at 500 g/ha: Lolium perenne, 312 h, read-out: Control of weed species LOLPE (100=total damage to plant; 0=no damage to plant). The procedure, abridged:
as §1

Another assay deals with Eleusine indica (ELEIN). The note with it: post-emergence application, 500 g/Ha, evaluated after 13 days; for pest or weed control at 500 g/ha: Eleusine indica, 312 h, read-out: Control of weed species ELEIN (100=total damage to plant; 0=no damage to plant). In a few lines: as §1
The test system of assay [2] is Ipomoea hederacea (IPOHE). The settings on record: post-emergence application, 500 g/Ha, evaluated after 13 days; for pest or weed control at 500 g/ha: Ipomoea hederacea, 312 h, read-out: Control of weed species IPOHE (100=total damage to plant; 0=no damage to plant). The procedure, abridged: as §1
Assay [3] deals with Euphorbia heterophylla (EPHHL). The settings on record: post-emergence application, 500 g/Ha, evaluated after 13 days; for pest or weed control at 500 g/ha: Euphorbia heterophylla, 312 h, read-out: Control of weed species EPHHL (100=total damage to plant; 0=no damage to plant). In a few lines: as §1
In assay [4] the test system is Amaranthus palmeri (AMAPA). The note with it: post-emergence application, 500 g/Ha, evaluated after 13 days; for pest or weed control at 500 g/ha: Amaranthus palmeri, 312 h, read-out: Control of weed species AMAPA (100=total damage to plant; 0=no damage to plant). The procedure, abridged:
as §1

For the next assay, the system named is Setaria faberi (SETFA). The settings on record: post-emergence application, 500 g/Ha, evaluated after 13 days; for pest or weed control at 500 g/ha: Setaria faberi, 312 h, read-out: Control of weed species SETFA (100=total damage to plant; 0=no damage to plant). The procedure, abridged: as §1
Assay [5] relates to Echinochloa crus-galli (ECHCG). The settings on record: post-emergence application, 500 g/Ha, evaluated after 13 days; for pest or weed control at 500 g/ha: Echinochloa crus-galli, 312 h, read-out: Control of weed species ECHCG (100=total damage to plant; 0=no damage to plant). In a few lines: as §1
The subject of assay [6] is Digitaria sanguinalis (DIGSA). The note with it: post-emergence application, 500 g/Ha, evaluated after 13 days; for pest or weed control at 500 g/ha: Digitaria sanguinalis, 312 h, read-out: Control of weed species DIGSA (100=total damage to plant; 0=no damage to plant). In a few lines: as §1

Take `O=C(O)CC[n+]1ccc(C(=O)NCCc2nccs2)cn1` [Compound A143]: the pest or weed control at 500 g/ha in [1] stood at 90%; in the assay with Lolium perenne (LOLPE), 50%; in the assay on Eleusine indica (ELEIN), 100%; in assay [2], 40%; in [3], 50%; in assay [4], 100%. The pest or weed control at 500 g/ha with Setaria faberi (SETFA) is 80%; in assay [5] it was 40%; in assay [6], 60%.

Take `O=C(O)CC[n+]1ccc(C(=O)NC2CSC2)cn1` [Compound A69]: the pest or weed control at 500 g/ha was 60% in [1]; 40% in the assay on Lolium perenne (LOLPE); 30% in the assay with Eleusine indica (ELEIN); 40% in assay [2]; 70% in assay [3]; 90% in [4]. In addition, the pest or weed control at 500 g/ha (in the assay with Setaria faberi (SETFA); in assay [5]; in assay [6]) was 100% in each case.

With `CCNC(=O)c1cc[n+](CCC(=O)O)nc1` [Compound A43], the pest or weed control at 500 g/ha turned out to be 90% in assay [1]; 50% in the assay with Lolium perenne (LOLPE); 100% in the assay on Eleusine indica (ELEIN); 70% in [2]; 100% in assay [3]; 100% in assay [4]. In addition, the pest or weed control at 500 g/ha in the assay on Setaria faberi (SETFA) turned out to be 100%; in [5], 60%; in assay [6], 100%.

With `CN(NC(=O)c1cc[n+](CCC(=O)O)nc1)C(=O)OC(C)(C)C.O=C([O-])C(F)(F)F` [Compound A72], in assay [1], the “Control of weed species CHEAL (100=total damage to plant; 0=no damage to plant)” value was 20. In the assay with Lolium perenne (LOLPE), the “Control of weed species LOLPE (100=total damage to plant; 0=no damage to plant)” value is 20. Moreover, the “Control of weed species ELEIN (100=total damage to plant; 0=no damage to plant)” value in the assay with Eleusine indica (ELEIN) was found to be 30. For the same compound, in assay [2], the “Control of weed species IPOHE (100=total damage to plant; 0=no damage to plant)” value is 20. In addition, the “Control of weed species EPHHL (100=total damage to plant; 0=no damage to plant)” value in assay [3] is recorded as 20. In [4], the “Control of weed species AMAPA (100=total damage to plant; 0=no damage to plant)” value is 100. In the assay with Setaria faberi (SETFA), the “Control of weed species SETFA (100=total damage to plant; 0=no damage to plant)” value worked out at 20. In addition, the “Control of weed species ECHCG (100=total damage to plant; 0=no damage to plant)” value in assay [5] is on record as 20. The “Control of weed species DIGSA (100=total damage to plant; 0=no damage to plant)” value in [6] is recorded as 40.

Consider `O=C(Nc1ccccc1O)c1cc[n+](CCS(=O)(=O)[O-])nc1` [Compound A84, 2-[4-[(2-hydroxyphenyl)carbamoyl]pyridazin-1-ium-1-yl]ethanesulfonate], for which the pest or weed control at 500 g/ha in [1] was found to be 30%; in the assay on Lolium perenne (LOLPE), 0%; in the assay on Eleusine indica (ELEIN), 10%; in assay [2] it was 10%; in assay [3] it was 30%; in assay [4] it was 0%. For the same compound, the pest or weed control at 500 g/ha was found to be 20% in the assay with Setaria faberi (SETFA), 20% in assay [5] and 50% in [6].

With `O=C(O)CC[n+]1ccc(C(=O)Nc2ccccc2)cn1` [Compound A33], the pest or weed control at 500 g/ha in assay [1] worked out at 80%; in the assay on Lolium perenne (LOLPE), 70%; in the assay on Eleusine indica (ELEIN) it was 90%; in [2] it was 30%; in [3] it was 50%; in [4] it was 100%. Moreover, the pest or weed control at 500 g/ha (in the assay on Setaria faberi (SETFA); in assay [5]; in [6]) was 60% throughout.

On to `CS(=O)(=O)CCNC(=O)c1cc[n+](CCNS(=O)(=O)[O-])nc1` [Compound A136], for which the pest or weed control at 500 g/ha is 100% in assay [1]; 70% with Lolium perenne (LOLPE); 80% with Eleusine indica (ELEIN); 30% in [2]; 60% in [3]; 0% in [4]. For the same compound, the pest or weed control at 500 g/ha with Setaria faberi (SETFA) amounted to 30%; in assay [5], 50%; in assay [6], 100%.

For `CCNC(=O)c1cc[n+](CC(C)C(=O)O)nc1` (stereo not drawn) [Compound A60], the pest or weed control at 500 g/ha in assay [1] is 20%; with Lolium perenne (LOLPE), 100%; with Eleusine indica (ELEIN), 100%; in [2], 70%; in [3], 90%; in assay [4], 100%. For the same compound, the pest or weed control at 500 g/ha in the assay on Setaria faberi (SETFA) came to 100%; in assay [5], 60%; in assay [6], 100%.

With `C#CCNC(=O)c1cc[n+](CCNS(=O)(=O)[O-])nc1` [Compound A141], the pest or weed control at 500 g/ha stood at 100% in [1]; 70% in the assay with Lolium perenne (LOLPE); 90% in the assay on Eleusine indica (ELEIN); 70% in assay [2]; 60% in assay [3]; 100% in assay [4]. Moreover, the pest or weed control at 500 g/ha with Setaria faberi (SETFA) came out at 40%; in assay [5], 40%; in assay [6], 70%.

Take `O=C(O)CC[n+]1ccc(C(=O)N2CCOCC2)cn1` [Compound A29]: the pest or weed control at 500 g/ha in assay [1] worked out at 90%; in the assay on Lolium perenne (LOLPE), 50%; in the assay with Eleusine indica (ELEIN), 90%; in assay [2], 50%; in assay [3], 100%; in assay [4], 100%. Besides, the pest or weed control at 500 g/ha (in the assay on Setaria faberi (SETFA); in [5]; in assay [6]) was 90% throughout.

Turning to `CC(C#N)NC(=O)c1cc[n+](CCC(=O)O)nc1` (stereo not drawn) [Compound A85], the pest or weed control at 500 g/ha in assay [1] is 90%; in the assay with Lolium perenne (LOLPE), 60%; in the assay with Eleusine indica (ELEIN), 100%; in assay [2], 30%; in assay [3], 100%; in [4], 100%. For the same compound, the pest or weed control at 500 g/ha came to 90% in the assay on Setaria faberi (SETFA), 90% in [5] and 100% in assay [6].

Consider `O=C(O)CC[n+]1ccc(C(=O)NC2CC2(F)F)cn1` (stereo not drawn) [Compound A95], for which the pest or weed control at 500 g/ha in assay [1] turned out to be 100%; in the assay on Lolium perenne (LOLPE), 60%; in the assay with Eleusine indica (ELEIN), 100%; in assay [2], 60%; in assay [3], 100%; in assay [4], 100%. The pest or weed control at 500 g/ha with Setaria faberi (SETFA) stood at 100%; in assay [5], 80%; in assay [6], 100%.

For `CCCNC(=O)c1cc[n+](CCS(=O)(=O)[O-])nc1` [Compound A51], the pest or weed control at 500 g/ha in assay [1] stood at 70%; in the assay with Lolium perenne (LOLPE), 20%; in the assay on Eleusine indica (ELEIN), 20%; in assay [2] it was 60%; in assay [3] it was 60%; in assay [4] it was 50%. The values for the pest or weed control at 500 g/ha (in the assay on Setaria faberi (SETFA); in assay [5]; in assay [6]) were 60%, 60% and 90%, respectively.

Turning to `CC(C)NC(=O)c1cc[n+](CCC(=O)[O-])nc1` [Compound A6], the pest or weed control at 500 g/ha in [1] is 100%; in the assay on Lolium perenne (LOLPE), 90%; in the assay with Eleusine indica (ELEIN) it was 70%; in assay [2], 60%; in [3], 50%; in assay [4], 100%. In addition, the pest or weed control at 500 g/ha stood at 90% in the assay on Setaria faberi (SETFA), 50% in [5] and 90% in assay [6].

Take `O=C(O)CC[n+]1ccc(C(=O)N2CCS(=O)(=O)CC2)cn1` [Compound A108]: the pest or weed control at 500 g/ha in [1] came to 100%; in the assay on Lolium perenne (LOLPE), 40%; in the assay with Eleusine indica (ELEIN) it was 80%; in [2], 70%; in assay [3], 80%; in assay [4], 100%. For the same compound, the figures for the pest or weed control at 500 g/ha (in the assay with Setaria faberi (SETFA); in [5]; in assay [6]) were 90%, 70% and 90%, respectively.
